Reference: patent publication US8361780B2, “Biological system and assay for identifying modulators of tubulin ligases” (University of Georgia Research Foundation, Inc., priority 2005, dated 2013)

How the values were obtained:
zebrafish embryos [1] = assay: Tubulin monoglycylation in cilia of zebrafish embryos (TAP952 immunofluorescence); format: in vivo; conditions: 72 hpf; TTLL3-ATG MO 1 ng, TTLL3-SP MO 3 ng
Text: (§1) MO Knockdowns in Zebrafish Embryos. TTLL3-ATG MO (5′ […] 3′; SEQ ID NO:129) and TTLL3-SP MO (5′ […] 3; SEQ ID NO:130) were obtained from Open Biosystems (Huntsville, AL). TTLL3-ATG targets the translation initiation site of ttll3 mRNA. TTLL3-SP is predicted to prevent splicing of exon 11 and cause a frame shift in exon 12. This would eliminate the coding sequence downstream of exon 10, which includes a conserved catalytic domain-encoding region. To evaluate the effect of TTLL3-SP on ttll3 mRNA, total RNA was isolated with TRIzol reagent (Invitrogen, Inc., Carlsbad, Calif.) from embryos at 7 hpf: 50 uninjected control embryos, 40 embryos injected with 3 ng TTLL3-SP MO, or 30 embryos injected with 5 ng TTLL3-SP MO. Total RNA ([…]) was used as a template for cDNA synthesis with random hexamers and oligo-dT primers and the iScript TM cDNA synthesis kit (Bio-Rad Laboratories, Hercules, Calif.). cDNA ([…]) was amplified with the following primers spanning exon 11: TTLL3-splice F, 5′-[…]-3′ (exon 10; SEQ ID NO:131); TTLL3-splice R, 5′-[…]-3′ (exon 12; SEQ ID NO:132). As expected, primers flanking exon 11 produced a shorter product in RT-PCR from embryos injected with TTLL3-SP than in controls (FIG. 50D). […] As a negative control, we injected 25 base MOs with a random base mixture at each position (Gene Tools, Inc., Philomath, Oreg.).
(§2) Microscopy of Zebrafish. For whole-mount, in situ hybridization, embryos were fixed as previously described (Hagos and Dougan, 2007), stored in 100% methanol at −20° C., and stained with spaw, lefty1, lefty2, and cmlc2 probes (Yelon, 2001). Embryos were photographed under differential interference contrast with a Zeiss Axioplan 2 microscope with Slidebook (Intelligent Imaging Innovations, Denver, Colo.). For immunofluorescence, the embryos were manually dechorionated and fixed with 0.5% Triton X-100 and 4% paraformaldehyde in PBT (0.1% Tween-20 in PBS) at 4° C. overnight. After washing with PBT, embryos were dehydrated in methanol/PBT series and incubated overnight in 100% methanol at −20° C. After rehydration, embryos were blocked for 1-2 hr in 2% BSA, 0.5% normal goat serum,l%DMSO, 0.5% Triton X-100 in PBS, and incubated overnight at 4° C. with one of the following antibodies: 6-11 B-1 (1:1000); TAP952 (1:2000); AXO49 (1:2000); and GT335 (1:1000); polyE (1:500). After washing 3×10 min with 0.5% Triton X-100 in PBS, embryos were incubated overnight at 4° C. in anti-mouse-IgG-FITC or anti-rabbit-IgG-Cy3 (1:500; Zymed), washed (3×10 min), mounted in 100 mg/ml of DABCO (Sigma-Aldrich) in PBS, and examined on a Leica TCS SP confocal microscope.

zebrafish embryos [2] = assay: Morphology of zebrafish morphant embryos; conditions: in vivo
Text: as §1

zebrafish embryos [3] = assay: Heart position in zebrafish embryos, scoring live embryos; format: in vivo
Text: as §1

zebrafish embryos [4] = assay: Heart position in zebrafish embryos, in situ hybridization; format: in vivo
Text: as §1, §2

zebrafish embryos [5] = assay: Expression pattern of lefty2 in zebrafish embryos (in situ hybridization); format: in vivo
Text: as §1, §2

zebrafish embryos [6] = assay: Expression pattern of southpaw in zebrafish embryos (in situ hybridization); format: in vivo
Text: as §1, §2

ttll3 mRNA = assay: RT-PCR assay for TTLL3 mRNA in injected zebrafish embryos; format: in vivo; conditions: embryos at 7 hpf, 3 or 5 ng
Text: as §1

TTLL3-SP-MO: antisense morpholino 5′ GATGTACAGAGCTGAGATTGAAAAG 3; blocks splicing at the intron 10/exon 11 junction of ttll3 mRNA (all phosphorodiamidate morpholino (PMO))
levels of tubulin monoglycylation/glycylation in cilia (zebrafish embryos [1]): reduced
hydrocephalic morphants (zebrafish embryos [2]): 81%
morphant embryos with curly tail (zebrafish embryos [2]): 64.3%
heart position left, number of embryos (zebrafish embryos [3]): 21
heart position left, percent of embryos (zebrafish embryos [3]): 64%
heart position middle, number of embryos (zebrafish embryos [3]): 8
heart position middle, percent of embryos (zebrafish embryos [3]): 24%
heart position right, number of embryos (zebrafish embryos [3]): 4
heart position right, percent of embryos (zebrafish embryos [3]): (12%)
heart position left, number of embryos (zebrafish embryos [4]): 23
heart position left, percent of embryos (zebrafish embryos [4]): 57.5%
heart position middle, number of embryos (zebrafish embryos [4]): 6
heart position middle, percent of embryos (zebrafish embryos [4]): 15%
heart position right, number of embryos (zebrafish embryos [4]): 11
heart position right, percent of embryos (zebrafish embryos [4]): (27.5%)
lefty2 expression: Bilatera or midline, number of embryos (zebrafish embryos [5]): 2
lefty2 expression: Bilatera or midline, percent of embryos (zebrafish embryos [5]): (4.8%)
lefty2 expression: No specific signal, number of embryos (zebrafish embryos [5]): 16
lefty2 expression: No specific signal, percent of embryos (zebrafish embryos [5]): (38.1%)
lefty2 expression: left, number of embryos (zebrafish embryos [5]): 21
lefty2 expression: left, percent of embryos (zebrafish embryos [5]): (50%)
lefty2 expression: right, number of embryos (zebrafish embryos [5]): 3
lefty2 expression: right, percent of embryos (zebrafish embryos [5]): (7.1%)
southpaw expression: Bilatera or midline, number of embryos (zebrafish embryos [6]): 22
southpaw expression: Bilatera or midline, percent of embryos (zebrafish embryos [6]): (53.7%)
southpaw expression: No specific signal, number of embryos (zebrafish embryos [6]): 6
southpaw expression: No specific signal, percent of embryos (zebrafish embryos [6]): (14.6%)
southpaw expression: left, number of embryos (zebrafish embryos [6]): 12
southpaw expression: left, percent of embryos (zebrafish embryos [6]): (29.3%)
southpaw expression: right, number of embryos (zebrafish embryos [6]): 1
southpaw expression: right, percent of embryos (zebrafish embryos [6]): (2.4%)
levels of endogenous TTLL3 mRNA (ttll3 mRNA): dramatic reduction
